target: USP7 (Homo sapiens, UniProt Q93009); experiment: USP7 inhibitory potency (Table 1); format: biochemical
Sequence (Q93009 whole entry): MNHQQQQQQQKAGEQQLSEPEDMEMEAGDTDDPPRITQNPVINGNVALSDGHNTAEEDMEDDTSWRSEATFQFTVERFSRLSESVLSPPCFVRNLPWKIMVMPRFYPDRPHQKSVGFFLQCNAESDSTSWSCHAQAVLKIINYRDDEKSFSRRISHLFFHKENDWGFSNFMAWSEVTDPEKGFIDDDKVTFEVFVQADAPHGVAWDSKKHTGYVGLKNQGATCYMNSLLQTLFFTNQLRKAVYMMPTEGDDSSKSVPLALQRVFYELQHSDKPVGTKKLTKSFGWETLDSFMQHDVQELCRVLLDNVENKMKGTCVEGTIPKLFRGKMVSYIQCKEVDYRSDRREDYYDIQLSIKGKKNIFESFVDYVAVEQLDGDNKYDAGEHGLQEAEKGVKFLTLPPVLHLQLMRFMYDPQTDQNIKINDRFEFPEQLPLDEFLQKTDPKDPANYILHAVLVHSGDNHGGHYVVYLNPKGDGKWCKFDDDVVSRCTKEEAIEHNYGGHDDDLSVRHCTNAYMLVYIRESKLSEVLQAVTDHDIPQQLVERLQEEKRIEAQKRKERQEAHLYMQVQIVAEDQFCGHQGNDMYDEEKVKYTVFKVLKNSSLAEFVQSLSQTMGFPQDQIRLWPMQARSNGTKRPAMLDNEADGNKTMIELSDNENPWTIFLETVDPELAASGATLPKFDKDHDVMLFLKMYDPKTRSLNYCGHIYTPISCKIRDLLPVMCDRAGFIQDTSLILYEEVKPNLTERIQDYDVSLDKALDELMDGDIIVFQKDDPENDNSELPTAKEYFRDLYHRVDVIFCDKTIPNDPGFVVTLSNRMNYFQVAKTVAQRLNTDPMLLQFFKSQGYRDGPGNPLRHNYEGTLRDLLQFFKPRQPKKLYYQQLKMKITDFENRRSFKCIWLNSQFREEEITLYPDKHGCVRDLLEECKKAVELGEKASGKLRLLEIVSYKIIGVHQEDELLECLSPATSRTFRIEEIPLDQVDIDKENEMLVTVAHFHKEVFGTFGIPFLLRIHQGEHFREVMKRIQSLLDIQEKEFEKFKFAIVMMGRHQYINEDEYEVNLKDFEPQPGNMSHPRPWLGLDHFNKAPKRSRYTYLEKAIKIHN

Row | Compound | IC50 [nM]
1 | Cn1nc([C@H]2Cc3cc(Cl)cc(-c4ccnc5cc(Cl)ccc45)c3O2)c2c1CCNC2 [(R)-7-chloro-4-(5-chloro-2-(1-methyl-4,5,6,7-tetrahydro-1H-pyrazolo[4,3-c]pyridin-3-yl)-2,3-dihydrobenzofuran-7-yl)quinoline] | 10000 to 30000
2 | Cn1nc2c(c1[C@H]1Cc3cc(Cl)cc(-c4ncnc5cc(Cl)ccc45)c3O1)CNCC2 [(R)-7-chloro-4-(5-chloro-2-(2-methyl-4,5,6,7-tetrahydro-2H-pyrazolo[4,3-c]pyridin-3-yl)-2,3-dihydrobenzofuran-7-yl)quinazoline] | < 1000
3 | Clc1cc2c(c(-c3ccnc4cc(Cl)ccc34)c1)O[C@@H](c1[nH]nc3c1CNCC3)C2 [(R)-7-chloro-4-(5-chloro-2-(4,5,6,7-tetrahydro-2H-pyrazolo[4,3-c]pyridin-3-yl)-2,3-dihydrobenzofuran-7-yl)quinoline] | 1000 to 10000
4 | Cn1nc2c(c1[C@H]1Cc3cc(Cl)cc(-c4ncnc5cc(CO)oc45)c3O1)CNCC2 [(R)-(4-(5-chloro-2-(2-methyl-4,5,6,7-tetrahydro-2H-pyrazolo [4,3-c]pyridin-3-yl)-2,3-dihydrobenzofuran-7-yl)furo[3,2-d]pyrimidin-6-yl)methanol] | < 1000
5 | Cn1nc2c(c1[C@H]1Cc3cc(Cl)cc(-c4ncnc5cc(CO)sc45)c3O1)CNCC2 [(R)-(4-(5-chloro-2-(2-methyl-4,5,6,7-tetrahydro-2H-pyrazolo[4,3-c]pyridin-3-yl)-2,3-dihydrobenzofuran-7-yl)thieno[3,2-d]pyrimidin-6-yl)methanol] | < 1000
6 | OCC1(CO)Cc2nccc(-c3cc(Cl)cc4c3O[C@@H](c3onc5c3CNCC5)C4)c2C1 [(R)-(4-(5-chloro-2-(4,5,6,7-tetrahydroisoxazolo[4,3-c]pyridin-3-yl)-2,3-dihydrobenzofuran-7-yl)-6,7-dihydro-5H-cyclopenta[b]pyridine-6,6-diyl)dimethanol] | 1000 to 10000
7 | OCc1cc2ncnc(-c3cc(Cl)cc4c3O[C@@H](c3onc5c3CNCC5)C4)c2o1 [(R)-(4-(5-chloro-2-(4,5,6,7-tetrahydroisoxazolo[4,3-c]pyridin-3-yl)-2,3-dihydrobenzofuran-7-yl)furo[3,2-d]pyrimidin-6-yl)methanol] | < 1000
8 | NCc1cc(-c2cc(Cl)cc3c2O[C@@H](c2onc4c2CNCC4)C3)c2ccccc2n1 [(R)-(4-(5-chloro-2-(4,5,6,7-tetrahydroisoxazolo[4,3-c]pyridin-3-yl)-2,3-dihydrobenzofuran-7-yl)quinolin-2-yl)methanamine] | 1000 to 10000
9 | OCc1ccc2c(-c3cc(Cl)cc4c3O[C@@H](c3onc5c3CNCC5)C4)ccnc2c1 [(R)-(4-(5-chloro-2-(4,5,6,7-tetrahydroisoxazolo[4,3-c]pyridin-3-yl)-2,3-dihydrobenzofuran-7-yl)quinolin-7-yl)methanol] | < 1000
10 | OCc1cc2ncnc(-c3cc(Cl)cc4c3O[C@@H](c3onc5c3CNCC5)C4)c2s1 [(R)-(4-(5-chloro-2-(4,5,6,7-tetrahydroisoxazolo[4,3-c]pyridin-3-yl)-2,3-dihydrobenzofuran-7-yl)thieno[3,2-d]pyrimidin-6-yl)methanol] | < 1000
11 | O=C([C@H]1Cc2cc(Cl)cc(-c3ccnc4[nH]ccc34)c2O1)N1CCC(CCO)CC1 [(R)-(5-chloro-7-(1H-pyrrolo[2,3-b]pyridin-4-yl)-2,3-dihydrobenzofuran-2-yl)(4-(2-hydroxyethyl)piperidin-1-yl)methanone] | 10000 to 30000
12 | O=C([C@H]1Cc2cc(Cl)cc(-c3ccnc4[nH]ccc34)c2O1)N1CCNCC1 [(R)-(5-chloro-7-(1H-pyrrolo[2,3-b]pyridin-4-yl)-2,3-dihydrobenzofuran-2-yl)(piperazin-1-yl)methanone] | < 1000
13 | O=C([C@H]1Cc2cc(Cl)cc(-c3ccnc4cc(CCO)sc34)c2O1)N1CCNCC1 [(R)-(5-chloro-7-(2-(2-hydroxyethyl)thieno[3,2-b]pyridin-7-yl)-2,3-dihydrobenzofuran-2-yl)(piperazin-1-yl)methanone] | < 1000
14 | O=C([C@H]1Cc2cc(Cl)cc(-c3ccnc4cc(C5(O)COC5)sc34)c2O1)N1CCNCC1 [(R)-(5-chloro-7-(2-(3-hydroxyoxetan-3-yl)thieno[3,2-b]pyridin-7-yl)-2,3-dihydrobenzofuran-2-yl)(piperazin-1-yl)methanone] | < 1000
15 | O=C([C@H]1Cc2cc(Cl)cc(-c3ccnc4cc(CN5CCCCS5(=O)=O)sc34)c2O1)N1CCNCC1 [(R)-(5-chloro-7-(2-((1,1-dioxido-1,2-thiazinan-2-yl)methyl)thieno[3,2-b]pyridin-7-yl)-2,3-dihydrobenzofuran-2-yl)(piperazin-1-yl)methanone] | < 1000
16 | O=C([C@H]1Cc2cc(Cl)cc(-c3ccnc4cc(CO)oc34)c2O1)N1CCNCC1 [(R)-(5-chloro-7-(2-(hydroxymethyl)furo[3,2-b]pyridin-7-yl)-2,3-dihydrobenzofuran-2-yl)(piperazin-1-yl)methanone] | < 1000
17 | O=C([C@H]1Cc2cc(Cl)cc(-c3ccnc4cc(CO)sc34)c2O1)N1CCn2nc(C(F)(F)F)nc2C1 [(R)-(5-chloro-7-(2-(hydroxymethyl)thieno[3,2-b]pyridin-7-yl)-2,3-dihydrobenzofuran-2-yl)(2-(trifluoromethyl)-5,6-dihydro-[1,2,4]triazolo[1,5-a]pyrazin-7(8H)-yl)methanone] | 1000 to 10000
18 | CN(C)C1CN(C(=O)[C@H]2Cc3cc(Cl)cc(-c4ccnc5cc(CO)sc45)c3O2)C1 [(R)-(5-chloro-7-(2-(hydroxymethyl)thieno[3,2-b]pyridin-7-yl)-2,3-dihydrobenzofuran-2-yl)(3-(dimethylamino)azetidin-1-yl)methanone] | < 1000
19 | O=C([C@H]1Cc2cc(Cl)cc(-c3ccnc4cc(CO)sc34)c2O1)N1CCn2c(nnc2C(F)(F)F)C1 [(R)-(5-chloro-7-(2-(hydroxymethyl)thieno[3,2-b]pyridin-7-yl)-2,3-dihydrobenzofuran-2-yl)(3-(trifluoromethyl)-5,6-dihydro-[1,2,4]triazolo[4,3-a]pyrazin-7(8H)-yl)methanone] | 1000 to 10000
20 | Cc1nnc2n1CCN(C(=O)[C@H]1Cc3cc(Cl)cc(-c4ccnc5cc(CO)sc45)c3O1)C2 [(R)-(5-chloro-7-(2-(hydroxymethyl)thieno[3,2-b]pyridin-7-yl)-2,3-dihydrobenzofuran-2-yl)(3-methyl-5,6-dihydro-[1,2,4]triazolo[4,3-a]pyrazin-7(8H)-yl)methanone] | 1000 to 10000
21 | CN(C)C1CCN(C(=O)[C@H]2Cc3cc(Cl)cc(-c4ccnc5cc(CO)sc45)c3O2)CC1 [(R)-(5-chloro-7-(2-(hydroxymethyl)thieno[3,2-b]pyridin-7-yl)-2,3-dihydrobenzofuran-2-yl)(4-(dimethylamino)piperidin-1-yl)methanone] | < 1000
22 | CNC1CCN(C(=O)[C@H]2Cc3cc(Cl)cc(-c4ccnc5cc(CO)sc45)c3O2)CC1 [(R)-(5-chloro-7-(2-(hydroxymethyl)thieno[3,2-b]pyridin-7-yl)-2,3-dihydrobenzofuran-2-yl)(4-(methylamino)piperidin-1-yl)methanone] | < 1000
23 | O=C([C@H]1Cc2cc(Cl)cc(-c3ccnc4cc(CO)sc34)c2O1)N1CCC(N2CCCC2)CC1 [(R)-(5-chloro-7-(2-(hydroxymethyl)thieno[3,2-b]pyridin-7-yl)-2,3-dihydrobenzofuran-2-yl)(4-(pyrrolidin-1-yl)piperidin-1-yl)methanone] | < 1000

From patent US20210317134A1, “UBIQUITIN-SPECIFIC-PROCESSING PROTEASE 7 (USP7) MODULATORS AND USES THEREOF” (RAPT THERAPEUTICS, INC., priority 2019, published 2021)
